Assays:
[1] = system: mouse acinar cells; test: Total cholesterol content of mouse acinar cells (ex vivo pancreatitis models or cholesterol chelator); assay type: cell-based; set-up: total cholesterol in acinar cells, physiologic doses: dose or concentration left out as unconfirmed; details: for cholesterol overload, mouse acinar cells: ex-vivo pancreatitis, 1 h, 100 nM CCK, 1 mM carbachol or 500 μM TLCS
Description: (§1) FIGS. 8A-8M show derangement of cholesterol metabolism in experimental pancreatitis. Characteristics of cholesterol metabolism were measured, as detailed in FIGS. 4A-4R, in pancreas of WT mice subjected to pancreatitis induced with cerulein (CER-AP), L-arginine (Arg-AP), or CDE diet (CDE-AP) (A, B, and E-G); ex vivo pancreatitis induced in WT mouse (C and I-M) or human acinar cells (D) with 100 nM CCK (CCK-AP) or 1 mM carbachol; and isolated pancreatic mitochondria (H). (B) Cholesterol ester (CE) heatmap; each column represents an individual mouse. (F) IB analysis of the indicated proteins. (G) LAL activity was measured by a fluorogenic assay (n=6 mice per condition). (H) Cholesterol content was measured by enzymatic assay. (I-M) Filipin colocalization with indicated proteins was quantified as detailed in FIGS. 2A-2L. Each symbol in A, C-E, and H represents an individual mouse, or cell or mitochondria preparation (n=3-15 per condition). Each symbol in J, K, and M corresponds to 20-30 cells in a different field (n=10-20 fields from 3 cell preparations per condition). Values are mean±SEM. *P<0.05, **P<0.01, ***P<0.001 vs. the same parameter in control/untreated pancreas, acinar cells or isolated mitochondria. Significance was determined by 2-tailed Student's t test (B, E, H, J, K, and M) or 1-way ANOVA followed by Tukey's multiple comparison test (A, C, and D). Scale bars: 10 μm.
(§2) Parameters of cholesterol metabolism were measured in (A, B, E, F) pancreas of mice subjected to pancreatitis induced with cerulean (CER-AP), L-arginine (Arg-AP), or combination of EtOH+palmitoleic acid (EtOH+POA); and (C) ex-vivo models on mouse and human acinar cells treated for 1 h with 100 nM CCK, […] or 500 μM TLCS. In (A), each column in CE heatmap represents an individual mouse. (B, C) Total cholesterol content was measured with cholesterol assay kit (Abcam, ab65390). […] Each symbol corresponds to 20-30 cells in each of 8 high-expression (qPCR) of proteins regulating cholesterol synthesis (4 mice/group). (B-D) Each symbol represents an individual animal or cell preparation. (A-D, F) Values are mean±SE (*p<0.05, **p<0.01, ***p<0.001 vs saline or control). Signficance was determined by 2-tailed student's t test.
(§3) Ex vivo pancreatitis models were performed on mouse and human acinar cells, and human pancreas slices by incubation with supramaximal CCK (100 nM) or carbachol (1 mM), as described previously (80, 81).
Total cholesterol content was measured with Cholesterol Assay kit per manufacturer's instructions. Samples of mouse pancreas and liver, cell pellet homogenates, subcellular fractions, isolated mitochondria, and serum were diluted in the reaction buffer containing cholesterol probe and incubated at 37° C. for 1 h in the dark. To measure total cholesterol, the samples were subjected to digestion with cholesterol esterase. To measure non-esterified cholesterol, the esterase was omitted from the assay.
Fluorescence intensity (for cholesterol) and absorbance (for TAG) were measured in a Tecan microplate reader. Each measurement was in duplicate, and the values were normalized per mg total protein in the sample.

[2] = system: human acinar cells; test: Total cholesterol content of human acinar cells (ex vivo pancreatitis models); assay type: cell-based; details: for cholesterol overload, human acinar cells: ex-vivo pancreatitis, 1 h, 100 nM CCK, 1 mM carbachol or 500 μM TLCS
Description: as §1, §2, §3
Human pancreas slices were obtained as in (12), from portions of live normal human pancreata from pre-terminal donors that were not used for transplantation and diverted to research (provided by Trillium Gift of Life Network, Toronto, Ontario, year 2020) or from normal portions of pancreatic cancer operations. Pancreas was cut into ~3×3×3 mm pieces and embedded with 37° C. low melting 3.8% agarose gel in extracellular solution containing (mM): 125 NaCl, 2.5 KCl, 1 MgCl2, 2 CaCl2, 1.25 NaH2PO4, 26 NaHCO3, 2 sodium pyruvate, 0.25 ascorbic acid, 3 myo-inositol, 6 lactic acid, and 7 glucose, and placed on ice to solidify the gel. The gelled tissue blocks were sliced with Vibratome into 120 μm-thick slices; slices were washed with the same extracellular solution, placed in 199 medium containing 0.1 mg/mL soybean trypsin inhibitor, and treated with CCK-8 (CCK) or carbachol for ex-vivo pancreatitis.
Total cholesterol content was measured with Cholesterol Assay kit per manufacturer's instructions. […]

[3] = supramaximal (100 nM) CCK-8 or carbachol, ex vivo AP

SMILES | cholesterol overload, mouse acinar cells [1] | total cholesterol in acinar cells, physiologic doses ([1]; physiologic doses of CCK or carbachol) | cholesterol content, mouse acinar cells, supramaximal stimulation [1, 3] | cholesterol overload, human acinar cells [2] | cholesterol content, human acinar cells, supramaximal stimulation [2, 3]
C[N+](C)(C)CCOC(N)=O [carbachol] | prominent | did not alter | increased | prominent | increased
C[C@H](CCC(=O)NCCS(=O)(=O)O)[C@H]1CC[C@H]2[C@@H]3CC[C@@H]4C[C@H](OS(=O)(=O)O)CC[C@]4(C)[C@H]3CC[C@]12C [TLCS] | prominent | – | – | prominent | –

From US20260325485A1, “COMPOSITIONS AND METHODS FOR TREATING PANCREATITIS” (The United States Government as represented by the …, priority 2022, published 2026)
